Test results published in US10611740B2, “Aryl dihydro-2H-benzo[b][1,4]oxazine sulfonamide and related compounds for use as agonists of RORγ and the treatment of disease” (Lycera Corporation, priority 2015, dated 2020).

Key:
RORγ-LBD = target: T1, RORγ-LBD (Homo sapiens, UniProt P51449); test: RORγ-Ligand Binding Domain (LBD) TR-FRET Assay; assay type: biochemical;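 on TR-FRET Assay Max Response: 665/615 nm ratio relative to signal without ursolic acid or compound set at 100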
T1 construct: made in house; host or cells: SF9 cells (baculovirus)
T1 sequence (P51449 269-508 limits assumed): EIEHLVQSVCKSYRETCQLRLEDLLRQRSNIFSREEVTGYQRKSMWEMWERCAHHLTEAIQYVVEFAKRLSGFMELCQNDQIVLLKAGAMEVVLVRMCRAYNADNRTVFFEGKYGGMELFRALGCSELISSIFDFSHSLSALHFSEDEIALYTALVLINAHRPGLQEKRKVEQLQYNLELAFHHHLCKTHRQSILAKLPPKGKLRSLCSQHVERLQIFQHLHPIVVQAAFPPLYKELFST
Method in brief: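 TR-FRET read-out using a biotin-tagged SRC1 coactivator LXXLL peptide (200 nM final), with the antagonist ursolic acid present at 2 μM final. Receptor is His-tagged LBD expressed in SF9 cells, ~3 nM final in pH 7.0 Tris/KCl/EDTA/DTT/BSA buffer; compounds in 1% DMSO final.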

Gal4-RORγ-LBD = target: T2, Gal4-RORγ-LBD (Homo sapiens, UniProt P51449); test: Gal4-RORγ Luciferase Reporter Assay in HEK-293T Cells; assay type: cell-based; details: HEK-293 cells
T2 construct: expressed in transfected cells; host or cells: HEK-293 cells (pcDNA3.1neo plasmid)
T2 sequence (P51449 269-508 limits assumed): T1 sequence (P51449 269-508 limits assumed)
Method in brief: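 Luminescence read-out (One-Glo, 10 min RT) after overnight compound exposure at 37 °C in HEK-293 cells carrying Gal4-RORγ-LBD plus a Gal4-luciferase reporter, in the presence of 2 μM ursolic acid. Max Response is the upper plateau from a 4-parameter logistic fit, normalized to untreated signal = 100.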

[1] = luciferase reporter, with 2 μM ursolic acid

Q: For `O=C(O)CC[C@H]1CN(S(=O)(=O)c2cccc(C(F)(F)F)c2)c2cc(-c3cccc(F)c3F)ccc2O1` [Compound 1, (S)-3-(6-(2,3-difluorophenyl)-4-((3-(trifluoromethyl)phenyl)sulfonyl)-3,4-dihydro-2H-benzo[b][1,4]oxazin-2-yl)propanoic acid], which EC50 (RORγ-LBD) is on record?
A: < 500 nM

Q: What about the “TR-FRET Assay Max Response” value (RORγ-LBD) of the same molecule?
A: *** (The symbol “***” indicates a value in the range of greater than 150 to 200)

Q: What about the EC50 (Gal4-RORγ-LBD; [1]) of the same molecule?
A: < 500 nM

Q: And the “Gal4-RORγ Assay Max Response” value (Gal4-RORγ-LBD; [1])?
A: *** (The symbol “***” indicates a value in the range of greater than 150 to 200)

Q: With `O=C(O)CC[C@H]1CN(S(=O)(=O)c2cccc(C(F)(F)F)c2)c2cc(-c3ccccc3Cl)ccc2O1` [Compound 2A, (S)-3-(6-(2-chlorophenyl)-4-((3-(trifluoromethyl)phenyl)-sulfonyl)-3,4-dihydro-2H-benzo[b][1,4]oxazin-2-yl)propanoic acid] as the molecule, how does the EC50 (RORγ-LBD) read?
A: < 500 nM

Q: And the “TR-FRET Assay Max Response” value (RORγ-LBD)?
A: *** (The symbol “***” indicates a value in the range of greater than 150 to 200)

Q: What about the EC50 (Gal4-RORγ-LBD; [1]) of the same molecule?
A: < 500 nM

Q: And the “Gal4-RORγ Assay Max Response” value (Gal4-RORγ-LBD; [1])?
A: ** (The symbol “**” indicates a value in the range of greater than 90 to 150)

Q: `O=C(O)CC[C@H]1CN(S(=O)(=O)c2cccc(C(F)(F)F)c2)c2cc(-c3ccnc(C(F)(F)F)c3)ccc2O1` [Compound 2AA, (S)-3-(4-((3-(trifluoromethyl)-phenyl)sulfonyl)-6-(2-(trifluoromethyl)pyridin-4-yl)-3,4-dihydro-2H-benzo[b][1,4]oxazin-2-yl)propanoic acid] was tested. Which EC50 (RORγ-LBD) did it give?
A: < 500 nM

Q: What about the “TR-FRET Assay Max Response” value (RORγ-LBD) of the same molecule?
A: **** (The symbol “****” indicates a value greater than 200)

Q: And the EC50 (Gal4-RORγ-LBD; [1])?
A: > 10000 nM

Q: What does the source list for `O=C(O)CC[C@H]1CN(S(=O)(=O)c2cccc(C(F)(F)F)c2)c2cc(-c3ccc(Cl)cc3Cl)ccc2O1` [Compound 2AB, (S)-3-(6-(2,4-dichlorophenyl)-4-((3-(trifluoromethyl)phenyl)-sulfonyl)-3,4-dihydro-2H-benzo[b][1,4]oxazin-2-yl)propanoic acid]?
A: EC50 (RORγ-LBD): < 500 nM; TR-FRET Assay Max Response (RORγ-LBD): **** (The symbol “****” indicates a value greater than 200); EC50 (Gal4-RORγ-LBD; [1]): > 10000 nM; Gal4-RORγ Assay Max Response (Gal4-RORγ-LBD; [1]): ** (The symbol “**” indicates a value in the range of greater than 90 to 150)

Q: For `COc1c(Cl)cccc1-c1ccc2c(c1)N(S(=O)(=O)c1cccc(C(F)(F)F)c1)C[C@H](CCC(=O)O)O2` [Compound 2AC, (S)-3-(6-(3-chloro-2-methoxy-phenyl)-4-((3-(trifluoromethyl)-phenyl)sulfonyl)-3,4-dihydro-2H-benzo[b][1,4]oxazin-2-yl)propanoic acid], which EC50 (RORγ-LBD) is on record?
A: < 500 nM

Q: And the “TR-FRET Assay Max Response” value (RORγ-LBD)?
A: **** (The symbol “****” indicates a value greater than 200)

Q: What about the EC50 (Gal4-RORγ-LBD; [1]) of the same molecule?
A: < 500 nM

Q: What about the “Gal4-RORγ Assay Max Response” value (Gal4-RORγ-LBD; [1]) of the same molecule?
A: *** (The symbol “***” indicates a value in the range of greater than 150 to 200)

Q: What does the source list for `O=C(O)CC[C@H]1CN(S(=O)(=O)c2cccc(C(F)(F)F)c2)c2cc(-c3cc(F)ccc3F)ccc2O1` [Compound 2AD, (S)-3-(6-(2,5-difluorophenyl)-4-((3-(trifluoromethyl)-phenyl)sulfonyl)-3,4-dihydro-2H-benzo[b][1,4]oxazin-2-yl)propanoic acid]?
A: EC50 (RORγ-LBD): < 500 nM; TR-FRET Assay Max Response (RORγ-LBD): **** (The symbol “****” indicates a value greater than 200); EC50 (Gal4-RORγ-LBD; [1]): < 500 nM; Gal4-RORγ Assay Max Response (Gal4-RORγ-LBD; [1]): *** (The symbol “***” indicates a value in the range of greater than 150 to 200)

Q: `O=C(O)CC[C@H]1CN(S(=O)(=O)c2cccc(C(F)(F)F)c2)c2cc(-c3cc(F)cc(C(F)(F)F)c3)ccc2O1` [Compound 2AE, (S)-3-(6-(3-fluoro-5-(trifluoromethyl)phenyl)-4-((3-(trifluoromethyl)phenyl)-sulfonyl)-3,4-dihydro-2H-benzo[b][1,4]oxazin-2-yl)propanoic acid] was tested. Which EC50 (RORγ-LBD) did it give?
A: < 500 nM

Q: What about the “TR-FRET Assay Max Response” value (RORγ-LBD) of the same molecule?
A: **** (The symbol “****” indicates a value greater than 200)

Q: And the EC50 (Gal4-RORγ-LBD; [1])?
A: < 500 nM

Q: And the “Gal4-RORγ Assay Max Response” value (Gal4-RORγ-LBD; [1])?
A: *** (The symbol “***” indicates a value in the range of greater than 150 to 200)

Q: How did the EC50 (RORγ-LBD) turn out when `O=C(O)CC[C@H]1CN(S(=O)(=O)c2cccc(C(F)(F)F)c2)c2cc(-c3ccc(F)c(C(F)(F)F)c3)ccc2O1` [Compound 2AF, (S)-3-(6-(4-fluoro-3-(trifluoromethyl)phenyl)-4-((3-(trifluoromethyl)phenyl)-sulfonyl)-3,4-dihydro-2H-benzo[b][1,4]oxazin-2-yl)propanoic acid] was run?
A: < 500 nM

Q: And the “TR-FRET Assay Max Response” value (RORγ-LBD)?
A: **** (The symbol “****” indicates a value greater than 200)

Q: And the EC50 (Gal4-RORγ-LBD; [1])?
A: > 10000 nM

Q: Which EC50 (Gal4-RORγ-LBD; 2 μM ursolic acid) does the source give for `O=C(O)CO[C@@H]1Cc2ccc(-c3cc(F)ccc3F)cc2N(S(=O)(=O)c2cccc(C(F)(F)F)c2)C1` [Compound 82, (R)-2-((7-(2,5-difluorophenyl)-1-((3-(trifluoromethyl)phenyl)sulfonyl)-1,2,3,4-tetrahydroquinolin-3-yl)oxy)acetic acid] here?
A: 500 to 5000 nM

Q: What about the “Gal4-RORγ Assay Max Response” value (Gal4-RORγ-LBD; 2 μM ursolic acid) of the same molecule?
A: ** (The symbol “**” indicates a value in the range of greater than 90 to 150)

Q: For `CC(C)(O[C@@H]1Cc2ccc(-c3cc(F)ccc3F)cc2N(S(=O)(=O)c2cccc(C(F)(F)F)c2)C1)C(=O)O` [Compound 83B, (R)-2-((7-(2,5-difluorophenyl)-1-((3-(trifluoromethyl)phenyl)sulfonyl)-1,2,3,4-tetrahydroquinolin-3-yl)oxy)-2-methylpropanoic acid], which EC50 (Gal4-RORγ-LBD; 2 μM ursolic acid) is on record?
A: 500 to 5000 nM

Q: What about the “Gal4-RORγ Assay Max Response” value (Gal4-RORγ-LBD; 2 μM ursolic acid) of the same molecule?
A: ** (The symbol “**” indicates a value in the range of greater than 90 to 150)

Q: For `CC(C)(O[C@H]1Cc2ccc(-c3cc(F)ccc3F)cc2N(S(=O)(=O)c2cccc(C(F)(F)F)c2)C1)C(=O)O` [Compound 83C, (S)-2-((7-(2,5-difluorophenyl)-1-((3-(trifluoromethyl)phenyl)sulfonyl)-1,2,3,4-tetrahydroquinolin-3-yl)oxy)-2-methylpropanoic acid], which EC50 (Gal4-RORγ-LBD; 2 μM ursolic acid) is on record?
A: 500 to 5000 nM

Q: And the “Gal4-RORγ Assay Max Response” value (Gal4-RORγ-LBD; 2 μM ursolic acid)?
A: ** (The symbol “**” indicates a value in the range of greater than 90 to 150)

Q: With `CC(C)(O[C@@H]1Cc2ccc(-c3cc(F)cc(OC(F)F)c3)cc2N(S(=O)(=O)c2cccc(C(F)(F)F)c2)C1)C(=O)O` [Compound 83D, (R)-2-((7-(3-(difluoromethoxy)-5-fluorophenyl)-1-((3-(trifluoromethyl)phenyl)sulfonyl)-1,2,3,4-tetrahydroquinolin-3-yl)oxy)-2-methylpropanoic acid] as the molecule, how does the EC50 (Gal4-RORγ-LBD; 2 μM ursolic acid) read?
A: 500 to 5000 nM

Q: And the “Gal4-RORγ Assay Max Response” value (Gal4-RORγ-LBD; 2 μM ursolic acid)?
A: ** (The symbol “**” indicates a value in the range of greater than 90 to 150)

Q: `O=C(O)CO[C@@H]1Cc2ccc(-c3cc(F)cc(OC(F)F)c3)cc2N(S(=O)(=O)c2cccc(C(F)(F)F)c2)C1` [Compound 83E, (R)-2-((7-(3-(difluoromethoxy)-5-fluorophenyl)-1-((3-(trifluoro-methyl)phenyl)sulfonyl)-1,2,3,4-tetrahydroquinolin-3-yl)oxy)acetic acid] was tested. Which EC50 (Gal4-RORγ-LBD; 2 μM ursolic acid) did it give?
A: 500 to 5000 nM

Q: And the “Gal4-RORγ Assay Max Response” value (Gal4-RORγ-LBD; 2 μM ursolic acid)?
A: * (The symbol “*” indicates a value in the range of 25 to 90)

Q: What does the source list for `CC(C)(O[C@H]1Cc2ccc(-c3cc(F)cc(OC(F)F)c3)cc2N(S(=O)(=O)c2cccc(C(F)(F)F)c2)C1)C(=O)O` [Compound 83F, (S)-2-((7-(3-(difluoromethoxy)-5-fluorophenyl)-1-((3-(trifluoromethyl)phenyl)sulfonyl)-1,2,3,4-tetrahydroquinolin-3-yl)oxy)-2-methylpropanoic acid]?
A: EC50 (Gal4-RORγ-LBD; 2 μM ursolic acid): 500 to 5000 nM; Gal4-RORγ Assay Max Response (Gal4-RORγ-LBD; 2 μM ursolic acid): * (The symbol “*” indicates a value in the range of 25 to 90)

Q: What does the source list for `O=C(O)[C@]1(C[C@H]2CN(S(=O)(=O)c3cccc(C(F)(F)F)c3)c3cc(-c4cc(F)cc(OC(F)F)c4)ccc3O2)C[C@](O)(CO)C1` [Compound 87, (1r,3R)-1-(((S)-6-(3-(difluoromethoxy)-5-fluorophenyl)-4-((3-(trifluoromethyl)phenyl)sulfonyl)-3,4-dihydro-2H-benzo[b][1,4]oxazin-2-yl)methyl)-3-hydroxy-3-(hydroxymethyl)cyclobutane-1-carboxylic acid]?
A: EC50 (Gal4-RORγ-LBD; 2 μM ursolic acid): 500 to 5000 nM; Gal4-RORγ Assay Max Response (Gal4-RORγ-LBD; 2 μM ursolic acid): ** (The symbol “**” indicates a value in the range of greater than 90 to 150)

Q: Which results are given for `O=C(O)[C@]1(C[C@H]2CN(S(=O)(=O)c3cccc(C(F)(F)F)c3)c3cc(-c4cc(F)ccc4F)ccc3O2)C[C@](O)(CO)C1` [Compound 89D, (1r,3R)-1-(((S)-6-(2,5-difluoro-phenyl)-4-((3-(trifluoromethyl)-phenyl)sulfonyl)-3,4-dihydro-2H-benzo[b][1,4]oxazin-2-yl)methyl)-3-hydroxy-3-(hydroxymethyl)-cyclobutane-1-carboxylic acid]?
A: EC50 (Gal4-RORγ-LBD; 2 μM ursolic acid): 500 to 5000 nM; Gal4-RORγ Assay Max Response (Gal4-RORγ-LBD; 2 μM ursolic acid): ** (The symbol “**” indicates a value in the range of greater than 90 to 150)

Q: For `O=C(O)[C@]1(C[C@H]2CN(S(=O)(=O)c3cccc(C(F)(F)F)c3)c3cc(-c4cc(F)ccc4F)ccc3O2)C[C@@](O)(CO)C1` [Compound 89E, (1s,3S)-1-(((S)-6-(2,5-difluoro-phenyl)-4-((3-(trifluoromethyl)-phenyl)sulfonyl)-3,4-dihydro-2H-benzo[b][1,4]oxazin-2-yl)methyl)-3-hydroxy-3-(hydroxymethyl)-cyclobutane-1-carboxylic acid], which EC50 (Gal4-RORγ-LBD; 2 μM ursolic acid) is on record?
A: 500 to 5000 nM

Q: And the “Gal4-RORγ Assay Max Response” value (Gal4-RORγ-LBD; 2 μM ursolic acid)?
A: ** (The symbol “**” indicates a value in the range of greater than 90 to 150)
